According to patent US8957205B2, “Cycloalkane carboxamide derivatives and production process of same” (Seikagaku Corporation, priority 2006, dated 2015):
*1 amine or outer side, *2 acyl side, *3 side chain or, on linkers, in order; H or OH if unused. Where a SMILES comes first, the peptide text is derived from it. [ ]: non-standard residue; d: D form. The star is where a group is joined. Ac6c = NC1(C(=O)O)CCCCC1; Morpholide = C1CN(*)CCO1; Nle = CCCC[C@H](N)C(=O)O; Cbz = O=C(OCc1ccccc1)*; CO = O=C([*:1])[*:2]

Experiments:
Human cathepsin L = target: T1, Human cathepsin L (Homo sapiens, UniProt P07711); assay: Measurement of cathepsin L inhibitory activity (Z-Phe-Arg-MCA fluorescent substrate); assay type: biochemical; details: selectivity ratio L/K
T1 construct: purchased Calbiochem Corp
T1 sequence (P07711 114-333): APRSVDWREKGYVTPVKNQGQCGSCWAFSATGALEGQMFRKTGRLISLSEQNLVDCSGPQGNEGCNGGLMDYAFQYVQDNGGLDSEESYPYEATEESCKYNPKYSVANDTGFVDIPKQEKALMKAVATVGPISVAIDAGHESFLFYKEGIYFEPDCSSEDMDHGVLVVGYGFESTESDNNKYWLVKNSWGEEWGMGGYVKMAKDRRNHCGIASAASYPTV
Experimental: (§1) Human cathepsin L (Calbiochem Corp.) was used for measurement. Activity was measured based on decomposition of the fluorescent substrate Z-Phe-Arg-MCA (Peptide Institute, Inc.) following the method of Barrett et al.^3). Namely, the decomposition of […] Z-Phe-Arg-MCA by cathepsin L was measured in 100 mM sodium acetate, 5 mM EDTA, 4 mM urea, 8 mM cysteine and 0.005% Brij35 at pH 5.5. The reaction was carried out for 30 minutes at 30° C., and stopped by the addition of 2×10^−5 M Calpeptin. After stopping the reaction, fluorescent intensity was measured at an excitation wavelength of 355 nm and measurement wavelength of 460 nm. Inhibition of cathepsin L by the compounds was examined using the reaction system described above.

Human cathepsin B = target: T2, Human cathepsin B (Homo sapiens, UniProt P07858); assay: Measurement of cathepsin B inhibitory activity (Z-Arg-Arg-MCA fluorescent substrate); assay type: biochemical; details: selectivity ratio B/K
T2 construct: purchased Calbiochem Corp
Experimental: as §1, with “B” for “L”, “Z-Arg-Arg-MCA” for “Z-Phe-Arg-MCA”, “sodium/potassium phosphate, 1” for “sodium acetate, 5”, “EDTA,” for “EDTA, 4 mM urea,”, “6.0.” for “5.5.”

| L/K (ratio of cathepsin L IC50 to cathepsin K IC50) (Human cathepsin L) | B/K (ratio of cathepsin B IC50 to cathepsin K IC50) (Human cathepsin B) | SMILES |
| --- | --- | --- |
| 21 | 12 | CCCC[C@@H](C=O)NC(=O)C1(NC(=O)N2CCOCC2)CCCCC1 [Example 10, N-[[1-[(4-Morpholinylcarbonyl)amino]cyclohexyl]carbonyl]-L-norleucinal] ({Morpholide-CO}-[Ac6c]-[Nle]-aldehyde) |
| 400 | 230 | CC(C)[C@@H](C=O)NC(=O)C1(NC(=O)OCc2ccccc2)CCCCC1 [Example 7, N-[[1-[[(Phenylmethoxy)carbonyl]amino]cyclohexyl]carbonyl]-L-valinal] (Cbz-[Ac6c]-Val-aldehyde) |
| 50 | 35 | CCCC[C@@H](C=O)NC(=O)C1(NC(=O)OCc2ccccc2)CCCCC1 [Example 8, N-[[1-[[(Phenylmethoxy)carbonyl]amino]cyclohexyl]carbonyl]-L-norleucinal] (Cbz-[Ac6c]-[Nle]-aldehyde) |
| 7.3 | 4.3 | CCCC[C@@H](C=O)NC(=O)[C@H](CC(C)C)NC(=O)N1CCOCC1 [Reference Example 186, N—[N-(4-Morpholinylcarbonyl)-L-leucyl]-L-norleucinal] |
| 35 | 30 | CC(C)C[C@H](NC(=O)c1ccco1)C(=O)N[C@H](C=O)C(C)C [Reference Example 187, N—[N-(2-Furanylcarbonyl)-L-leucyl]-L-valinal] |
| 74 | 58 | CC(C)C[C@H](NC(=O)OCc1ccccc1)C(=O)N[C@H](C=O)C(C)C [Reference Example 184, N—[N-[(Phenylmethoxy)carbonyl]-L-leucyl]-L-valinal] (Cbz-Leu-Val-aldehyde) |
| 370 | 87 | CC(C)[C@@H](C=O)NC(=O)C1(NC(=O)c2ccco2)CCCCC1 [Example 9, N-[[1-[(2-Furanylcarbonyl)amino]cyclohexyl]carbonyl]-L-valinal] |

| SMILES | L/K (ratio of cathepsin L IC50 to cathepsin K IC50) (Human cathepsin L) | B/K (ratio of cathepsin B IC50 to cathepsin K IC50) (Human cathepsin B) |
| --- | --- | --- |
| CCCC[C@@H](C=O)NC(=O)[C@H](CC(C)C)NC(=O)OCc1ccccc1 [Reference Example 185, N—[N-[(Phenylmethoxy)carbonyl]-L-leucyl]-L-norleucinal] | 15 | 11 |
